{"source": "patent US20070179161A1", "about": "“Pyrazolopyrimidine compounds and their use in medicine” (VERNALIS (CAMBRIDGE) LIMITED., priority 2003, published 2007)", "key": {"PDK1 enzyme": {"molecular_target": "T1, PDK1 enzyme (Homo sapiens, UniProt O15530)", "T1 sequence (O15530 1-556)": "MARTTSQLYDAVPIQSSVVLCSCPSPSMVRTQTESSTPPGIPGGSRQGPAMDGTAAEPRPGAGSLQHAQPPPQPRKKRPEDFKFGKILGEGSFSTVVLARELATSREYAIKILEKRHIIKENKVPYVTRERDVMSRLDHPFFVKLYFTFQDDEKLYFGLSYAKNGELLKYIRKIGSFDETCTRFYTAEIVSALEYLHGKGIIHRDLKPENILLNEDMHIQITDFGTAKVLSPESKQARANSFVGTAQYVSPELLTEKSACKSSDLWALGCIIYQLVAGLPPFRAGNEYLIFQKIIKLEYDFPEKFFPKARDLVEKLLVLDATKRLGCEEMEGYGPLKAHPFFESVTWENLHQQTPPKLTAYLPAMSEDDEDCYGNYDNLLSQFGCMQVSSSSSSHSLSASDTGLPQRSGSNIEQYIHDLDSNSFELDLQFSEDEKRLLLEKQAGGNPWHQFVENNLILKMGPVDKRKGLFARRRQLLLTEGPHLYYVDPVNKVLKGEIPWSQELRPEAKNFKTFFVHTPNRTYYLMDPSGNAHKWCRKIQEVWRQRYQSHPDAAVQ", "assay": "PDK1 kinase inhibition assay (33P phosphorylation of synthetic peptide, filter plate)", "format": "biochemical", "conditions": "0.01 mM ATP, 60 min at 30° C.; read-out: PDK1 IC50", "procedure,_shortened": "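PDK1 and inhibitor incubated 60 min at 30° C with 0.01 mM ATP plus 33P-γ-ATP, 0.075 mM peptide, 7.5 mM Mg acetate, 0.1 mg/ml BSA in 0.05 M Tris.HCl pH 7.5. Stopped with phosphoric acid; phosphorylated peptide captured on filter plate and counted by scintillation.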"}, "GST-Chk1 enzyme": {"molecular_target": "T2, GST-Chk1 enzyme (Homo sapiens, UniProt O14757)", "T2 sequence (O14757 1-476)": "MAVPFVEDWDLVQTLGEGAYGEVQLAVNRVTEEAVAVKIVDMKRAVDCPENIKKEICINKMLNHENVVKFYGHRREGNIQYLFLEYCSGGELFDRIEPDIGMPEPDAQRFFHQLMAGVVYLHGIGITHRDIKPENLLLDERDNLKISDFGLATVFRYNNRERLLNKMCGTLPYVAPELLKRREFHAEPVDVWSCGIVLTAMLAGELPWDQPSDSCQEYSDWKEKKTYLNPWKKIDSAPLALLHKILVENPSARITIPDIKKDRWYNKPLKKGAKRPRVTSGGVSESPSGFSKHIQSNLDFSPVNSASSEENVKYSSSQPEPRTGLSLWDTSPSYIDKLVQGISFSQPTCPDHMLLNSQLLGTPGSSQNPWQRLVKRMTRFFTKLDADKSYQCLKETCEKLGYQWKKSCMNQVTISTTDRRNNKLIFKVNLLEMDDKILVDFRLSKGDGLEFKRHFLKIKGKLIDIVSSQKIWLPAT", "assay": "Chk1 kinase inhibition assay (33P phosphorylation of Chktide, filter plate)", "format": "biochemical", "conditions": "0.01 mM ATP, 11 nM GST-Chk1, 40 minutes at 30° C.; read-out: Chk1 IC50", "procedure,_shortened": "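Inhibitor and enzyme reacted 40 min at 30 °C, then stopped with 50 mM phosphoric acid. Phosphorylated peptide captured on filter plates and quantified by scintillation counting.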"}, "[1]": {"molecular_target": "CDK-2 enzyme, complexed with cyclin A (Homo sapiens, UniProt P24941)", "assay": "CDK2 enzyme inhibition assay (33P phosphorylation of peptide […], filter plate)", "format": "biochemical", "conditions": "CDK-2/cyclin A, 0.1 mM ATP, 40 min at 30° C.", "procedure,_shortened": "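Cyclin A–complexed CDK2 (0.4 U/ml) incubated with inhibitor, 0.03 mM peptide, 0.1 mM ATP plus 33P-γ-ATP in HEPES pH 7.5, 7.5 mM Mg acetate, 0.1 mg/ml BSA, 40 min at 30 °C. Stopped with phosphoric acid; phosphorylated peptide captured on filter plates and counted by scintillation.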"}, "[2]": {"assay": "Cell growth inhibition assay: cytotoxicity by sulforhodamine B (SRB) assay", "format": "cell-based", "conditions": "96 h", "protocol": "B. Cell Growth Inhibition Assay:\n• 1) Determine cell number by haemocytometer. • 2) Using an 8 channel multipipettor, add 160 μl of the cell suspension ([…] or 2×10^4 cells/ml) to each well of a 96-well microtitre plate. • 3) Incubate overnight at 37° C. in a CO2 incubator. Day 2 • 4) Stock solutions of drugs are prepared, and serial dilutions of each drug are performed in medium to give final concentrations in wells. • 5) Using a multipipettor, 40 μl of drug (at 5× final concentration) is added to quadruplicate wells. • 6) Control wells are at either side of the 96 well plates, where 40 μl of medium is added. • 7) Incubate plates in CO2 incubator for 4 days Day 6 • 8) Tip off medium into sink and immerse plate slowly into 10% ice cold trichloroacetic acid (TCA). Leave for about 30 mins on ice. • 9) Wash plates three times in tap water by immersing the plates into baths of tap water and tipping it off. • 10) Dry in incubator. • 11) Add 100 μl of 0.4% SRB in 1% acetic acid to each well (except the last row right hand)of the 96 well plate, this is the 0% control, ie no drug, no stain. The first row will be the 100% control with no drug, but with stain). Leave for 5 mins. • 12) Wash off unbound SRB stain with four washes of 1% acetic acid. • 13) Dry plates in incubator. • 14) Solubilise SRB using 100 μl of 10 mM Tris base and put plates on plate shaker for 5 mins. • 15) Determine absorbance at 540 nm using a plate reader. Calculate mean absorbance for quadruplicate wells and express as a percentage of value for control, untreated wells.\nPlot % absorbance values versus log drug concentration and determine the IC50."}, "[3]": {"conditions": "SRB assay, 4 days with drug, cell line not named, read-out: GI50"}}, "note": "pIC50: −log10 of the molar value. Read-outs that look alike come from different tables or passages of the source."}
{"smiles": "CN(C)S(=O)(=O)c1ccc(Nc2cc(N[C@H]3CC[C@H](N)CC3)nc3c(Br)cnn23)cc1Cl", "note": "[Example 180]", "values": [{"measurement": "pIC50", "setting": "PDK1 enzyme", "result": 5.70}, {"measurement": "pIC50", "setting": "GST-Chk1 enzyme", "result": 6.08}, {"measurement": "pIC50", "setting": "[1]", "result": 8.70}, {"measurement": "GI50", "setting": "[2]", "result": 330, "unit": "nM"}]}
{"smiles": "CCN[C@H]1CC[C@H](Nc2cc(Nc3ccc(S(=O)(=O)N(C)C)cc3)n3ncc(C(C)C)c3n2)CC1", "note": "[Example 147]", "values": [{"measurement": "pIC50", "setting": "PDK1 enzyme", "result": 5.00}, {"measurement": "pIC50", "setting": "GST-Chk1 enzyme", "result": 5.40}, {"measurement": "pIC50", "setting": "[1]", "result": 7.01}, {"measurement": "GI50", "setting": "[2]", "result": 1000, "unit": "nM"}]}
{"smiles": "CC(C)c1cnn2c(Nc3ccc(S(=O)(=O)N(C)C)cc3)cc(N[C@H]3CCNC3)nc12", "note": "[Example 194]", "values": [{"measurement": "pIC50", "setting": "PDK1 enzyme", "result": 5.35}, {"measurement": "pIC50", "setting": "GST-Chk1 enzyme", "result": 6.68}, {"measurement": "pIC50", "setting": "[1]", "result": 7.14}, {"measurement": "GI50", "setting": "[2]; [3]", "result": 590, "unit": "nM"}]}
{"smiles": "N[C@H]1CC[C@H](Nc2cc(Nc3cccc(Cl)c3)n3ncc(Cl)c3n2)CC1", "note": "[Example 192]", "values": [{"measurement": "pIC50", "setting": "PDK1 enzyme", "result": 5.49}, {"measurement": "pIC50", "setting": "GST-Chk1 enzyme", "result": 5.67}, {"measurement": "pIC50", "setting": "[1]", "result": 8.05}, {"measurement": "GI50", "setting": "[2]; [3]", "result": 200, "unit": "nM"}]}
{"smiles": "CSc1cnn2c(Nc3ccc(Oc4cncc(Cl)c4)cc3)cc(N[C@H]3CC[C@H](N)CC3)nc12", "note": "[Example 198]", "values": [{"measurement": "pIC50", "setting": "PDK1 enzyme", "result": 5.35}, {"measurement": "pIC50", "setting": "GST-Chk1 enzyme", "result": 5.68}, {"measurement": "pIC50", "setting": "[1]", "result": 7.74}, {"measurement": "GI50", "setting": "[2]; [3]", "result": 310, "unit": "nM"}]}
{"smiles": "CN(C)S(=O)(=O)c1ccc(Nc2cc(O[C@H]3CC[C@H](N)CC3)nc3c(Cl)cnn23)cc1", "note": "[Example 168]", "values": [{"measurement": "pIC50", "setting": "PDK1 enzyme", "result": 4.82}, {"measurement": "pIC50", "setting": "GST-Chk1 enzyme", "result": 5.30}, {"measurement": "pIC50", "setting": "[1]", "result": 7.85}, {"measurement": "GI50", "setting": "[2]; [3]", "result": 210, "unit": "nM"}]}
